Measurements published in patent US6599937B1, “Unsaturated oxyalkylene esters and uses thereof” (Beacon Laboratories, Inc., priority 1997, dated 2003).
Where two headings read alike, the source gives them in different places. One block for each compound: values may come before it.

Experiments:
NCI-H522 = test: SRB assay, inhibition of cancer cell proliferation, NCI-H522; format: cell-based
Experimental: (§1) The inhibition of cell proliferation was measured in the indicated cancer cell lines using the sulforhodamine B (SRB) assay as described by Monks et al., 1991, J. Natl. Can. Inst. 83:757-766. The SRB assay is used to screen for anti-cancer drugs. […] The table provides the dosage of each compound (in mM) which inhibited fifty percent (IC50) or ninety percent (IC90) of proliferation when calculated using the Chou Analysis' Median Effective Dose equation.

CFPAC = test: SRB assay, inhibition of cancer cell proliferation, CFPAC; format: cell-based
Experimental: as §1

MCF7 = test: SRB assay, inhibition of cancer cell proliferation, MCF7; format: cell-based, human
Experimental: (§2) Human promyelocytic leukemia cells (HL-60), human pancreatic carcinoma cells (PaCa-2) and human breast adenocarcinoma cells, pleural effusion cells (MCF-7) can be cultured as follows. Cells are grown in RPMI media with 10% FCS, supplemented with 2 mM glutamine and incubated at 37° C. in a humidified 5% CO2 incubator. Alternatively, cells can be grown in any other appropriate growth medium and conditions which supports the growth of the cell line under investigation. Viability can be determined by trypan blue exclusion. Cells are exposed to a test compound, cultures are harvested at various time points following treatment and stained with trypan blue. The inhibition of cell proliferation was measured in the indicated cancer cell lines using the sulforhodamine B (SRB) assay as described by Monks et al., 1991, J. Natl. Can. Inst. 83:757-766. The SRB assay is used to screen for anti-cancer drugs. […] The table provides the dosage of each compound (in mM) which inhibited fifty percent (IC50) or ninety percent (IC90) of proliferation when calculated using the Chou Analysis' Median Effective Dose equation.

HL-60 = test: SRB assay, inhibition of cancer cell proliferation, HL-60; format: cell-based, human
Experimental: as §2

LOX IMVI = test: SRB assay, inhibition of cancer cell proliferation, LOX IMVI; format: cell-based
Experimental: as §1

OVCAR-5 = test: SRB assay, inhibition of cancer cell proliferation, OVCAR-5; format: cell-based
Experimental: as §1

NCI-H23 = test: SRB assay, inhibition of cancer cell proliferation, NCI-H23; format: cell-based
Experimental: as §1

PC-3 = test: SRB assay, inhibition of cancer cell proliferation, PC-3; format: cell-based, human
Experimental: as §1

HT29 = test: SRB assay, inhibition of cancer cell proliferation, HT29; format: cell-based
Experimental: as §1

SF-295 = test: SRB assay, inhibition of cancer cell proliferation, SF-295; format: cell-based
Experimental: as §1

HL-60 cells = HL-60 cells cultured 3 days
Experimental: Cancer cell differentiation was evaluated in a human leukemia cell line by changes in expression of myelocytic maturation marker CD11b. The level of CD11b was measured on HL-60 cells by flow cytometry using a monoclonal antibody (MAb) against CD11b in a standard indirect immunofluorescence assay. Cells were cultured for 3 days with media or the indicated concentration of DiMeOCOMB. Cultured cells were collected by centrifugation, resuspended at 10^6 cells per 20μ RPMI+10% FCS and incubated with MAb for 30 min at […]. The cells were washed twice in cold PBS+[…] FCS and incubated with a 1:20 dilution of FITC-conjugated F(ab′)^2 fragment of rabbit anti-mouse IgG for 20-30 min at […]. in the dark. After washing the cells twice in cold PBS+10% FCS, the flow cytometry was performed.

[1] = Homo sapiens, NCI-H522 cell line, SRB assay, Chou Median Effective Dose equation, read-out: IC50
[2] = Homo sapiens, NCI-H522 cell line, SRB assay, Chou Median Effective Dose equation, read-out: IC90
[3] = CFPAC cell line, SRB assay, Chou Median Effective Dose equation, read-out: IC50
[4] = CFPAC cell line, SRB assay, Chou Median Effective Dose equation, read-out: IC90
[5] = Homo sapiens, MCF7 cell line, SRB assay, Chou Median Effective Dose equation, read-out: IC50
[6] = Homo sapiens, MCF7 cell line, SRB assay, Chou Median Effective Dose equation, read-out: IC90
[7] = Homo sapiens, HL-60 cell line, SRB assay, Chou Median Effective Dose equation, read-out: IC50
[8] = Homo sapiens, HL-60 cell line, SRB assay, Chou Median Effective Dose equation, read-out: IC90
[9] = Homo sapiens, LOX IMVI cell line, SRB assay, Chou Median Effective Dose equation, read-out: IC50
[10] = Homo sapiens, LOX IMVI cell line, SRB assay, Chou Median Effective Dose equation, read-out: IC90
[11] = Homo sapiens, OVCAR-5 cell line, SRB assay, Chou Median Effective Dose equation, read-out: IC50
[12] = Homo sapiens, OVCAR-5 cell line, SRB assay, Chou Median Effective Dose equation, read-out: IC90
[13] = Homo sapiens, NCI-H23 cell line, SRB assay, Chou Median Effective Dose equation, read-out: IC50
[14] = Homo sapiens, NCI-H23 cell line, SRB assay, Chou Median Effective Dose equation, read-out: IC90
[15] = Homo sapiens, PC-3 cell line, SRB assay, Chou Median Effective Dose equation, read-out: IC50
[16] = Homo sapiens, PC-3 cell line, SRB assay, Chou Median Effective Dose equation, read-out: IC90
[17] = Homo sapiens, HT-29, HT29 cell line, SRB assay, Chou Median Effective Dose equation, read-out: IC50
[18] = Homo sapiens, HT-29, HT29 cell line, SRB assay, Chou Median Effective Dose equation, read-out: IC90
[19] = Homo sapiens, SF-295 cell line, SRB assay, Chou Median Effective Dose equation, read-out: IC50
[20] = Homo sapiens, SF-295 cell line, SRB assay, Chou Median Effective Dose equation, read-out: IC90

IC50 (NCI-H522; [1]): 189 µM | IC90 (NCI-H522; [2]): 249 µM | IC50 (CFPAC; [3]): 150 µM | IC90 (CFPAC; [4]): 237 µM | IC50 (MCF7; [5]): 196 µM | IC90 (MCF7; [6]): > 4000 µM | IC50 (HL-60; [7]): 443 µM | IC90 (HL-60; [8]): > 4000 µM | IC50 (LOX IMVI; [9]): 197 µM | IC90 (LOX IMVI; [10]): 1910 µM | IC50 (OVCAR-5; [11]): 367 µM | IC90 (OVCAR-5; [12]): 500 µM | IC50 (NCI-H23; [13]): 182 µM | IC90 (NCI-H23; [14]): 249 µM | IC50 (PC-3; [15]): 203 µM | IC90 (PC-3; [16]): > 4000 µM | IC50 (HT29; [17]): 349 µM | IC90 (HT29; [18]): 492 µM | IC50 (SF-295; [19]): 197 µM | IC90 (SF-295; [20]): > 4000 µM
SMILES: CCCC(=O)OCOC(=O)C=Cc1ccccc1 [COMB, Cinnamoyloxymethyl Butyrate]

IC50 (NCI-H522; NCI-H522 cell line, SRB assay, Chou Median Effective Dose equation, read-out: IC50): 752 µM | IC90 (NCI-H522; NCI-H522 cell line, SRB assay, Chou Median Effective Dose equation, read-out: IC90): 1370 µM | IC50 (CFPAC; [3]): 308 µM | IC90 (CFPAC; [4]): 3570 µM | IC50 (MCF7; MCF7 cell line, SRB assay, Chou Median Effective Dose equation, read-out: IC50): 301 µM | IC90 (MCF7; MCF7 cell line, SRB assay, Chou Median Effective Dose equation, read-out: IC90): 466 µM | IC50 (HL-60; HL-60 cell line, SRB assay, Chou Median Effective Dose equation, read-out: IC50): 203 µM | IC90 (HL-60; HL-60 cell line, SRB assay, Chou Median Effective Dose equation, read-out: IC90): 248 µM | IC50 (LOX IMVI; LOX IMVI cell line, SRB assay, Chou Median Effective Dose equation, read-out: IC50): 772 µM | IC90 (LOX IMVI; LOX IMVI cell line, SRB assay, Chou Median Effective Dose equation, read-out: IC90): 978 µM | IC50 (OVCAR-5; OVCAR-5 cell line, SRB assay, Chou Median Effective Dose equation, read-out: IC50): 1460 µM | IC90 (OVCAR-5; OVCAR-5 cell line, SRB assay, Chou Median Effective Dose equation, read-out: IC90): 1890 µM | IC50 (NCI-H23; NCI-H23 cell line, SRB assay, Chou Median Effective Dose equation, read-out: IC50): 785 µM | IC90 (NCI-H23; NCI-H23 cell line, SRB assay, Chou Median Effective Dose equation, read-out: IC90): > 4000 µM | IC50 (PC-3; PC-3 cell line, SRB assay, Chou Median Effective Dose equation, read-out: IC50): 1440 µM | IC90 (PC-3; PC-3 cell line, SRB assay, Chou Median Effective Dose equation, read-out: IC90): 1870 µM | IC50 (HT29; HT29 cell line, SRB assay, Chou Median Effective Dose equation, read-out: IC50): 406 µM | IC90 (HT29; HT29 cell line, SRB assay, Chou Median Effective Dose equation, read-out: IC90): 798 µM | IC50 (SF-295; SF-295 cell line, SRB assay, Chou Median Effective Dose equation, read-out: IC50): 764 µM | IC90 (SF-295; SF-295 cell line, SRB assay, Chou Median Effective Dose equation, read-out: IC90): 977 µM
SMILES: CCCC(=O)OCOC(=O)C=Cc1ccc(OC)c(OC)c1 [DiMeOCOMB, 3,4-Dimethyoxycinnamoyloxymethyl Butyrate]
% CD11b Cells (HL-60 cells; concentration 50 μM (media control 12.2)): 87.5% | % CD11b Cells (HL-60 cells; concentration 100 μM (media control 12.2)): 88.6% | % CD11b Cells (HL-60 cells; concentration 203 μM (media control 12.2)): 90.4%

IC50 (NCI-H522; [1]): 1980 µM | IC90 (NCI-H522; [2]): 3820 µM | IC50 (CFPAC; [3]): 1940 µM | IC90 (CFPAC; [4]): > 4000 µM | IC50 (MCF7; [5]): > 4000 µM | IC90 (MCF7; [6]): > 4000 µM | IC50 (HL-60; [7]): 2600 µM | IC90 (HL-60; [8]): > 4000 µM | IC50 (LOX IMVI; [9]): 3360 µM | IC90 (LOX IMVI; [10]): > 4000 µM | IC50 (OVCAR-5; [11]): 3730 µM | IC90 (OVCAR-5; [12]): > 4000 µM | IC50 (NCI-H23; [13]): 3270 µM | IC90 (NCI-H23; [14]): > 4000 µM | IC50 (PC-3; [15]): > 4000 µM | IC90 (PC-3; [16]): > 4000 µM | IC50 (HT29; [17]): 3960 µM | IC90 (HT29; [18]): > 4000 µM | IC50 (SF-295; [19]): > 4000 µM | IC90 (SF-295; [20]): > 4000 µM
SMILES: CC(=Cc1ccccc1)C(=O)O [MeCA, α-methylcinnamic acid, reference compound]

SMILES: CC(Cc1ccccc1)C(=O)O (centres unmarked) [MePPA, 2-methyl-3-phenylpropionic acid, reference compound]
IC50 (NCI-H522; Homo sapiens, NCI-H522): > 4000 µM | IC90 (NCI-H522; Homo sapiens, NCI-H522): > 4000 µM | IC50 (CFPAC): 3540 µM | IC90 (CFPAC): > 4000 µM | IC50 (MCF7; Homo sapiens, MCF7): > 4000 µM | IC90 (MCF7; Homo sapiens, MCF7): > 4000 µM | IC50 (HL-60; Homo sapiens, HL-60): > 4000 µM | IC90 (HL-60; Homo sapiens, HL-60): > 4000 µM | IC50 (LOX IMVI; Homo sapiens, LOX IMVI): > 4000 µM | IC90 (LOX IMVI; Homo sapiens, LOX IMVI): > 4000 µM | IC50 (OVCAR-5; Homo sapiens, OVCAR-5): > 4000 µM | IC90 (OVCAR-5; Homo sapiens, OVCAR-5): > 4000 µM | IC50 (NCI-H23; Homo sapiens, NCI-H23): > 4000 µM | IC90 (NCI-H23; Homo sapiens, NCI-H23): > 4000 µM | IC50 (PC-3; Homo sapiens, PC-3): > 4000 µM | IC90 (PC-3; Homo sapiens, PC-3): > 4000 µM | IC50 (HT29; Homo sapiens, HT-29): > 4000 µM | IC90 (HT29; Homo sapiens, HT-29): > 4000 µM | IC50 (SF-295; Homo sapiens, SF-295): > 4000 µM | IC90 (SF-295; Homo sapiens, SF-295): > 4000 µM
